Assay results from ChEMBL document CHEMBL1806422, “Effects of C7 substitutions in a high affinity microtubule-binding taxane on antitumor activity and drug transport” (Bioorg Med Chem Lett, 2011).

Experiments:
[1] = Cytotoxicity against multidrug-resistant human A2780AD cells overexpressing p-gp after 48 hrs by MTT assay; assay type: functional, cell-based; conditions: A2780 ADR
[2] = Binding affinity to microtubule after 30 mins by epothilone-B competition binding assay
[3] = Apparent permeability from basolateral to apical side of human Caco2 cells at 10 uM by LC/MS/MS analysis; assay type: ADME, cell-based; conditions: Caco-2
[4] = Binding affinity to purified p-glycoprotein by fluorescence quenching assay
[5] = Apparent permeability from apical to basolateral side of human Caco2 cells at 10 uM by LC/MS/MS analysis; assay type: ADME, cell-based; conditions: Caco-2
A2780 [6] = test: Cytotoxicity against human A2780 cells after 48 hrs by MTT assay; assay type: functional, cell-based; conditions: A2780, 48 h
A2780 [7] = test: Resistant index, ratio of IC50 for multidrug-resistant human A2780AD cells overexpressing p-gp to IC50 for human A2780 cells; assay type: functional
[8] = Efflux ratio of permeability from basolateral to apical side to apical to basolateral side in human Caco2 cells at 10 uM by LC/MS/MS analysis; assay type: ADME, cell-based; conditions: Caco-2

SMILES | Kd [2] [nM] | Papp B→A at 10 µM [3] [×10⁻⁶ cm/s] | Kd [4] [nM] | Papp A→B at 10 µM [5] [×10⁻⁶ cm/s] | efflux ratio at 10 µM [8] | IC50 [1] [nM] | IC50 (A2780 [6]) [nM] | Ratio IC50 (A2780 [7])
C/C=C(\C)C(=O)N[C@@H](c1ccccc1)[C@@H](O)C(=O)O[C@H]1C[C@@]2(O)[C@@H](OC(=O)c3cccc(N=[N+]=[N-])c3)[C@@H]3[C@]4(OC(C)=O)CO[C@@H]4C[C@H](OC(=O)C4CC4)[C@@]3(C)C(=O)[C@H](O)C(=C1C)C2(C)C | 0.95 | 9.4 | 2150 | 7.35 | 1.28 | 293 | 22 | 13.3
C/C=C(\C)C(=O)N[C@@H](c1ccccc1)[C@@H](O)C(=O)O[C@H]1C[C@@]2(O)[C@@H](OC(=O)c3cccc(N=[N+]=[N-])c3)[C@@H]3[C@]4(OC(C)=O)CO[C@@H]4C[C@H](OC(=O)CNC(=O)OC(C)(C)C)[C@@]3(C)C(=O)[C@H](O)C(=C1C)C2(C)C | 0.81 | 8.53 | 6340 | 1.23 | 6.93 | 875 | 15.5 | 56.4
C/C=C(\C)C(=O)N[C@@H](c1ccccc1)[C@@H](O)C(=O)O[C@H]1C[C@@]2(O)[C@@H](OC(=O)c3cccc(N=[N+]=[N-])c3)[C@@H]3[C@]4(OC(C)=O)CO[C@@H]4C[C@H](OC(=O)CC(F)(F)F)[C@@]3(C)C(=O)[C@H](O)C(=C1C)C2(C)C | 0.66 | 6.61 | 4310 | 3 | 2.2 | 1300 | 33 | 39.4
C/C=C(\C)C(=O)N[C@@H](c1ccccc1)[C@@H](O)C(=O)O[C@H]1C[C@@]2(O)[C@@H](OC(=O)c3cccc(N=[N+]=[N-])c3)[C@@H]3[C@]4(OC(C)=O)CO[C@@H]4C[C@H](OC(=O)OCC)[C@@]3(C)C(=O)[C@H](O)C(=C1C)C2(C)C | 0.9 | 12.6 | 1420 | 7.46 | 1.68 | 170 | 11.2 | 15.2
CC(=O)O[C@H]1C(=O)[C@@]2(C)[C@H]([C@H](OC(=O)c3ccccc3)[C@]3(O)C[C@H](OC(=O)[C@H](O)[C@@H](NC(=O)c4ccccc4)c4ccccc4)C(C)=C1C3(C)C)[C@]1(OC(C)=O)CO[C@@H]1C[C@@H]2O [PACLITAXEL] | 56 | 5.03 | 35 | 0.66 | 7.62 | 1900 | 0.62 | 3064
CC(C)NCC(O)COc1cccc2ccccc12 (stereo not given) [PROPRANOLOL] |  | 23.4 |  | 19.2 | 1.21 |  |  | 

Further lines, with some results ahead:

Kd [2] [nM] | Papp B→A at 10 µM [3] [×10⁻⁶ cm/s] | Kd [4] [nM] | Papp A→B at 10 µM [5] [×10⁻⁶ cm/s] | efflux ratio at 10 µM [8] | SMILES | IC50 [1] [nM] | IC50 (A2780 [6]) [nM] | Ratio IC50 (A2780 [7])
1.1 | 0.265 | 498 | 0.095 | 2.79 | C/C=C(\C)C(=O)N[C@@H](c1ccccc1)[C@@H](O)C(=O)O[C@H]1C[C@@]2(O)[C@@H](OC(=O)c3cccc(N=[N+]=[N-])c3)[C@@H]3[C@]4(OC(C)=O)CO[C@@H]4C[C@H](OC(=O)CC)[C@@]3(C)C(=O)[C@H](O)C(=C1C)C2(C)C | 14 | 2.7 | 5.2
1.48 | 27 | 2380 | 4.19 | 6.44 | C/C=C(\C)C(=O)N[C@@H](c1ccccc1)[C@@H](O)C(=O)O[C@H]1C[C@@]2(O)[C@@H](OC(=O)c3cccc(N=[N+]=[N-])c3)[C@@H]3[C@]4(OC(C)=O)CO[C@@H]4C[C@H](OC(=O)CN(C)C)[C@@]3(C)C(=O)[C@H](O)C(=C1C)C2(C)C | 3200 | 7.2 | 444.4
0.62 | 1.07 | 2750 | 0.19 | 5.63 | C/C=C(\C)C(=O)N[C@@H](c1ccccc1)[C@@H](O)C(=O)O[C@H]1C[C@@]2(O)[C@@H](OC(=O)c3cccc(N=[N+]=[N-])c3)[C@@H]3[C@]4(OC(C)=O)CO[C@@H]4C[C@H](OC(=O)CCl)[C@@]3(C)C(=O)[C@H](O)C(=C1C)C2(C)C | 710 | 17.2 | 41.2
2.15 | 19.1 | 3150 | 2.55 | 7.48 | C/C=C(\C)C(=O)N[C@@H](c1ccccc1)[C@@H](O)C(=O)O[C@H]1C[C@@]2(O)[C@@H](OC(=O)c3cccc(N=[N+]=[N-])c3)[C@@H]3[C@]4(OC(C)=O)CO[C@@H]4C[C@H](OC(=O)NC)[C@@]3(C)C(=O)[C@H](O)C(=C1C)C2(C)C | 1400 | 7.4 | 189.2
2.45 |  | 5290 |  |  | C/C=C(\C)C(=O)N[C@@H](c1ccccc1)[C@@H](O)C(=O)O[C@H]1C[C@@]2(O)[C@@H](OC(=O)c3cccc(N=[N+]=[N-])c3)[C@@H]3[C@]4(OC(C)=O)CO[C@@H]4C[C@H](OC(=O)N(C)C)[C@@]3(C)C(=O)[C@H](O)C(=C1C)C2(C)C | 950 | 26 | 36.5
